In patent US10351575B2, “Bicyclic urea, thiourea, guanidine and cyanoguanidine compounds useful for the treatment of pain” (Array BioPharma Inc., priority 2012, dated 2019):
Where a name gives a salt, the structure may show the parent alone.

Each compound was assayed against His-tagged recombinant human TrkA (Homo sapiens (Human), UniProt P04629) (assay: TrkA LanthaScreen Eu Kinase Binding Assay). Conditions: averaged IC50; TR-FRET binding, 60 min, 22° C.; read-out: TrkA Enzyme IC50.
Summary of the method: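 Three-fold compound dilutions (2% DMSO final) were incubated 60 min at 22° C. with 5 nM His-TrkA cytoplasmic domain, tracer 236 (4 nM), biotinylated anti-His (2 nM) and europium streptavidin (2 nM) in MOPS pH 7.5 buffer. Emission ratio 665/615 gave percent of control; four-parameter fit yielded IC50.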

Sequence of His-tagged recombinant human TrkA (P04629 440-796): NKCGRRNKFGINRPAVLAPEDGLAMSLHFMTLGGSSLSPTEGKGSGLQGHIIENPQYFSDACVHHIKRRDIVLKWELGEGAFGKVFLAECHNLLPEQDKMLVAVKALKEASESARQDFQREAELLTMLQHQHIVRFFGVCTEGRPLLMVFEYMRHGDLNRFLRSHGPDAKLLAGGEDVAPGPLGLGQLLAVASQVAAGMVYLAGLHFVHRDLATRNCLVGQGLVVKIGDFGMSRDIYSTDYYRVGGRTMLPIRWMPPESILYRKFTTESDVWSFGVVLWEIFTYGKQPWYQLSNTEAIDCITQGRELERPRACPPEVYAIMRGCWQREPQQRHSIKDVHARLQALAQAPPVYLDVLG

Structure (SMILES) | IC50
Cc1c(-c2cnn(C)c2)nn(-c2ccccc2)c1NC(=O)NC1CN(CC(F)(F)F)C2(CC2)c2ccccc21 (centres unmarked) [Example 136, 1-(1′,4-dimethyl-1-phenyl-1H,1′H-[3,4′-bipyrazol]-5-yl)-3-(2′-(2,2,2-trifluoroethyl)-3′,4′-dihydro-2′H-spiro[cyclopropane-1,1′-isoquinolin]-4′-yl)urea trifluoroacetate] | < 100 nM
Cc1c(-c2cnn(C)c2)nn(-c2ccccc2)c1NC(=O)N[C@@H]1c2ccccc2C2(CC2)[C@H]1O [Example 137, 1-(1′,4-dimethyl-1-phenyl-1H,1′H-[3,4′-bipyrazol]-5-yl)-3-((2′R,3′R)-2′-hydroxy-2′,3′-dihydrospiro[cyclopropane-1,1′-inden]-3′-yl)urea] | < 100 nM
O=C(Nc1c(Cl)c(OC[C@H]2CNCCO2)nn1-c1ccccc1)N[C@@H]1c2ccccc2C2(CC2)[C@H]1O [Example 140, 1-(4-chloro-3-((R)-morpholin-2-ylmethoxy)-1-phenyl-1H-pyrazol-5-yl)-3-((2′R,3′R)-2′-hydroxy-2′,3′-dihydrospiro[cyclopropane-1,1′-inden]-3′-yl)urea] | < 100 nM
CN1CCO[C@@H](COc2nn(-c3ccccc3)c(NC(=O)N[C@@H]3c4ccccc4C4(CC4)[C@H]3O)c2Cl)C1 [Example 141, 1-(4-chloro-3-(((R)-4-methylmorpholin-2-yl)methoxy)-1-phenyl-1H-pyrazol-5-yl)-3-((2′R,3′R)-2′-hydroxy-2′,3′-dihydrospiro[cyclopropane-1,1′-inden]-3′-yl)urea] | < 100 nM
Cc1c(OC[C@H]2CN(C(=O)OC(C)(C)C)CCO2)nn(-c2ccccc2)c1NC(=O)N[C@@H]1c2ccccc2C(C)(C)C[C@H]1O [Example 143, (R)-tert-butyl 2-(((5-(3-(trans-2-hydroxy-4,4-dimethyl-1,2,3,4-tetrahydronaphthalen-1-yl)ureido)-4-methyl-1-phenyl-1H-pyrazol-3-yl)oxy)methyl)morpholine-4-carboxylate] | < 100 nM
Cn1nc(-c2ccccc2)cc1NC(=O)N[C@@H]1c2ccccc2C(C)(C)C[C@H]1O [Example 145, 1-((1R,2R)-2-hydroxy-4,4-dimethyl-1,2,3,4-tetrahydronaphthalen-1-yl)-3-(1-methyl-3-phenyl-1H-pyrazol-5-yl)urea] | 100 to 1000 nM

Other lines, results leading:

IC50 | Structure (SMILES)
< 100 nM | COc1nn(-c2ccccc2)c(NC(=O)N[C@@H]2c3ccccc3C(C)(C)C[C@H]2O)c1C [Example 144, 1-((1R,2R)-2-hydroxy-4,4-dimethyl-1,2,3,4-tetrahydronaphthalen-1-yl)-3-(3-methoxy-4-methyl-1-phenyl-1H-pyrazol-5-yl)urea]
< 100 nM | CCOc1nn(-c2ccccc2)c(NC(=O)N[C@@H]2c3ccccc3C(C)(C)C[C@H]2O)c1C [Example 146, 1-(3-ethoxy-4-methyl-1-phenyl-1H-pyrazol-5-yl)-3-((1R,2R)-2-hydroxy-4,4-dimethyl-1,2,3,4-tetrahydronaphthalen-1-yl)urea]
< 100 nM | COCCOc1nn(-c2ccccc2)c(NC(=O)N[C@@H]2c3ccccc3C(C)(C)C[C@H]2O)c1C [Example 147, 1-((1R,2R)-2-hydroxy-4,4-dimethyl-1,2,3,4-tetrahydronaphthalen-1-yl)-3-(3-(2-methoxyethoxy)-4-methyl-1-phenyl-1H-pyrazol-5-yl)urea]
< 100 nM | Cc1c(CCO)nn(-c2ccccc2)c1NC(=O)N[C@@H]1c2ccccc2C(C)(C)C[C@H]1O [Example 148, 1-((1R,2R)-2-hydroxy-4,4-dimethyl-1,2,3,4-tetrahydronaphthalen-1-yl)-3-(3-(2-hydroxyethyl)-4-methyl-1-phenyl-1H-pyrazol-5-yl)urea]
< 100 nM | Cc1c(OCCO)nn(-c2ccccc2)c1NC(=O)N[C@@H]1c2ccccc2C(C)(C)C[C@H]1O [Example 149, 1-((1R,2R)-2-hydroxy-4,4-dimethyl-1,2,3,4-tetrahydronaphthalen-1-yl)-3-(3-(2-hydroxyethoxy)-4-methyl-1-phenyl-1H-pyrazol-5-yl)urea]
